# Legend:
# [1] = target: Cytochrome P450 3A4 (Homo sapiens, UniProt P08684); assay: Inhibition of CYP3A4 in human liver microsomes using midazolam as substrate pretreated for 10 mins followed by substrate addition measured after 10 mins in presence of NADPH by LC-MS/MS method; format: ADME
# [2] = target: T1, Tyrosine-protein kinase JAK3 (Homo sapiens, UniProt P52333); assay: Inhibition of human JAK3 using GEEEEYFELVKKKK as substrate measured after 120 mins in presence of [gamma33P]ATP by P81 ion exchange chromatographic method
# T1 sequence (P52333 whole entry): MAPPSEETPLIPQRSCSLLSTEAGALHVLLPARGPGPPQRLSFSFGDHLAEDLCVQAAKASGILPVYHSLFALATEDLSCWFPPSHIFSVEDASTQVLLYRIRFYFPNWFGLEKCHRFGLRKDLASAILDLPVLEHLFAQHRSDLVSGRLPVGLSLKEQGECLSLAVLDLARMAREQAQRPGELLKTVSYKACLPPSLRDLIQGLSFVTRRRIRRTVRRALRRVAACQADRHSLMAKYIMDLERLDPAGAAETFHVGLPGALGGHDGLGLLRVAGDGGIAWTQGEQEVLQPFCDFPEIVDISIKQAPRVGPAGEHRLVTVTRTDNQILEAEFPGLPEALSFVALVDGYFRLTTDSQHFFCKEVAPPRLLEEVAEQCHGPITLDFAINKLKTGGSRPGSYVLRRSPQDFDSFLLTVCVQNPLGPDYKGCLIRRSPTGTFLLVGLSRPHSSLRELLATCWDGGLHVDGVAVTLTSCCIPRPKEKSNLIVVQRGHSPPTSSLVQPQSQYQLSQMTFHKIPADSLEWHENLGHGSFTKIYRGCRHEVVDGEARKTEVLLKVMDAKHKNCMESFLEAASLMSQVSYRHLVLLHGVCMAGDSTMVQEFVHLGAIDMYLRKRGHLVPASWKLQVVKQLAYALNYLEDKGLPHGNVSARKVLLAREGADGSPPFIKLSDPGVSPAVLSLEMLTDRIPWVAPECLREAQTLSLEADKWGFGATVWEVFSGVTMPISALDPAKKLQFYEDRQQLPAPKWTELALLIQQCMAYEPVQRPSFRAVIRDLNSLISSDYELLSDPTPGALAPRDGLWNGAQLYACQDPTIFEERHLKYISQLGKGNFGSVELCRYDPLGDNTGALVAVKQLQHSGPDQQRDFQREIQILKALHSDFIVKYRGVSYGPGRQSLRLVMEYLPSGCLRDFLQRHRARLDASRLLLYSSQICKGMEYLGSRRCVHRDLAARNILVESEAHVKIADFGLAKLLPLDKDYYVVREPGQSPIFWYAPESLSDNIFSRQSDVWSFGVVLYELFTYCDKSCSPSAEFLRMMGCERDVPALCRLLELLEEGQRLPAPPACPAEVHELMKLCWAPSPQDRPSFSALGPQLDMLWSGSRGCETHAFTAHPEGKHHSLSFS
# [3] = Kinetic solubility of the compound at pH 7.4; format: physicochemical; conditions: buffer, read-out: Kinetic_solubility
# [4] = target: T2, Epidermal growth factor receptor (Homo sapiens, UniProt P00533); assay: Inhibition of human EGFR at 10 uM using poly[Glu:Tyr] (4:1) as substrate measured after 120 mins in presence of [gamma33P]ATP by P81 ion exchange chromatographic method relative to control
# T2 sequence (P00533 whole entry): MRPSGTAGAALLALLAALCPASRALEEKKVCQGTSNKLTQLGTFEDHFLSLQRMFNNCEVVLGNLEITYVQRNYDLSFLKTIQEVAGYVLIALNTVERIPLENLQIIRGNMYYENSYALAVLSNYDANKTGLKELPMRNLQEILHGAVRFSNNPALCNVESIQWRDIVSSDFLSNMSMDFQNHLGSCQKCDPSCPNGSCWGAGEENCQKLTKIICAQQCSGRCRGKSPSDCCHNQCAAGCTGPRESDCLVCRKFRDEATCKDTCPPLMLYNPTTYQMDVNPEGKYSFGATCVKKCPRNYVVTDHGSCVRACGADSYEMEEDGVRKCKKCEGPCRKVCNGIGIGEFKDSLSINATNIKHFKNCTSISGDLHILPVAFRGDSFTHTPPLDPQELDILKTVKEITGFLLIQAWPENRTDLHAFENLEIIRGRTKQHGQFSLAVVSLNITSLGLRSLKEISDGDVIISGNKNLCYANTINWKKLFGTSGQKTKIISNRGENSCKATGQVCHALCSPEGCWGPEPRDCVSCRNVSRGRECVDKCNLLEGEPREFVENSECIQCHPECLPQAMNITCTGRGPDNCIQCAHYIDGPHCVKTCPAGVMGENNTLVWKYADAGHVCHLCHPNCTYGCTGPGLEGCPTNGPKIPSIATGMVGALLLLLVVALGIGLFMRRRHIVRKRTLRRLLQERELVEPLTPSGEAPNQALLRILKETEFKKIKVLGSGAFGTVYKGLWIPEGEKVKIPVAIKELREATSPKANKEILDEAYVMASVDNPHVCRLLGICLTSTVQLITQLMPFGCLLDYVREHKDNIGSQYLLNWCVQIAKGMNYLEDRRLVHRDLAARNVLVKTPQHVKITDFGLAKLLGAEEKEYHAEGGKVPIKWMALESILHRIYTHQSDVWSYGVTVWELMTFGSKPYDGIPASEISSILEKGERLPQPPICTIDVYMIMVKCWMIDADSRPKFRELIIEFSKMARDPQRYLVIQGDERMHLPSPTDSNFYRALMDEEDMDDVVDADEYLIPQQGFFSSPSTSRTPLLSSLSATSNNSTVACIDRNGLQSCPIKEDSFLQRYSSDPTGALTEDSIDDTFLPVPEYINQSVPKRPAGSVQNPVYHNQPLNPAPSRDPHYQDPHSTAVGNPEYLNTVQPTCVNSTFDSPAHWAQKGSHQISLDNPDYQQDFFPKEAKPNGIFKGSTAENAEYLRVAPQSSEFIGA
# [5] = target: T3, Macrophage colony-stimulating factor 1 receptor (Homo sapiens, UniProt P07333); assay: Inhibition of human FMS using poly[Glu:Tyr] (4:1) as substrate measured after 120 mins in presence of [gamma33P]ATP by P81 ion exchange chromatographic method
# T3 sequence (P07333 whole entry): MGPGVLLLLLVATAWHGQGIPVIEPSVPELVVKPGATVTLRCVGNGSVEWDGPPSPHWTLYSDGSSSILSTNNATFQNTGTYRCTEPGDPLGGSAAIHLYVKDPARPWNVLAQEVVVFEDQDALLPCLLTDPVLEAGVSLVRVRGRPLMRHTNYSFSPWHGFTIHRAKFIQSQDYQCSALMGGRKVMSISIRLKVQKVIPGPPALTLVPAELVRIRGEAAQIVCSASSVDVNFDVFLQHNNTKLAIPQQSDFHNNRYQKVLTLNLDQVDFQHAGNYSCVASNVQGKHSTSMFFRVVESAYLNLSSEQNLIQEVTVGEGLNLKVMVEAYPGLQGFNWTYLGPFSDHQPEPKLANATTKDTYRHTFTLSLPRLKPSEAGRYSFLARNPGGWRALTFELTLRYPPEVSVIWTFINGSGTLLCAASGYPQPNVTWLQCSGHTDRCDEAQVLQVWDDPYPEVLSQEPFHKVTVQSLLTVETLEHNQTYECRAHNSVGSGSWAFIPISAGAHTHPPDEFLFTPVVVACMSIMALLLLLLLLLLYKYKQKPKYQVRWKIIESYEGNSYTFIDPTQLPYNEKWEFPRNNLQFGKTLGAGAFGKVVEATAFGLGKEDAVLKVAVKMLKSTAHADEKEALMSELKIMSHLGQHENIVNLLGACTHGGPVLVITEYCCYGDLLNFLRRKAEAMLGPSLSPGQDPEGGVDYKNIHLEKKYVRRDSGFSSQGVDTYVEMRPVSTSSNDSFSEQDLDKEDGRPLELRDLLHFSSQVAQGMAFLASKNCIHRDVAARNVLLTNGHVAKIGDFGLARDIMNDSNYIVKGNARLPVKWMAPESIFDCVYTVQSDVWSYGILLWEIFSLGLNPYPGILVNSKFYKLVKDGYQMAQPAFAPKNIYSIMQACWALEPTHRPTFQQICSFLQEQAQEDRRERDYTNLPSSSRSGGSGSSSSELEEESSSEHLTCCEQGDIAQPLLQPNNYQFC
# [6] = Octanol-buffer distribution co-efficient, log D of the compound at pH 7.4; format: physicochemical
# [7] = target: T4, Tyrosine-protein kinase ITK/TSK (Homo sapiens) (UniProt Q08881); assay: Inhibition of human ITK at 10 uM using myelin basic protein as substrate measured after 120 mins in presence of [gamma33P]ATP by P81 ion exchange chromatographic method relative to control
# T4 sequence (whole entry): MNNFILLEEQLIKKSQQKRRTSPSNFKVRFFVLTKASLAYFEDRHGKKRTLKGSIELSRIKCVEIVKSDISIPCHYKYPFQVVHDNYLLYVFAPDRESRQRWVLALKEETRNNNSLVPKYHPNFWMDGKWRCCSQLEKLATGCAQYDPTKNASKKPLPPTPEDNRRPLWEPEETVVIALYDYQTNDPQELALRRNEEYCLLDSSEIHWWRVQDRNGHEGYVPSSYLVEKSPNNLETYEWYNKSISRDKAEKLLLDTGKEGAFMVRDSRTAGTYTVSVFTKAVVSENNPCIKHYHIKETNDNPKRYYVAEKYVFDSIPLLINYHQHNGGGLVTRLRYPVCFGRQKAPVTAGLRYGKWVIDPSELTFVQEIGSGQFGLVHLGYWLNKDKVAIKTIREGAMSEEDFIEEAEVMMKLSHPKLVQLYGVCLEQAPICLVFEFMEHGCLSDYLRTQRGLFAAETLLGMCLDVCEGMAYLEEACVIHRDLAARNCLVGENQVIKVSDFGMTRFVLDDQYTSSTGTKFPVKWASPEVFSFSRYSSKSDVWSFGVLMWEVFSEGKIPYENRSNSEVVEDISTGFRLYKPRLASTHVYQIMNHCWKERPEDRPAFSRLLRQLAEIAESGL
# [8] = target: T3, Macrophage colony-stimulating factor 1 receptor; assay: Inhibition of human FMS at 10 uM using poly[Glu:Tyr] (4:1) as substrate measured after 120 mins in presence of [gamma33P]ATP by P81 ion exchange chromatographic method relative to control
# [9] = target: T2, Epidermal growth factor receptor; assay: Inhibition of human EGFR using poly[Glu:Tyr] (4:1) as substrate measured after 120 mins in presence of [gamma33P]ATP by P81 ion exchange chromatographic method
# [10] = Intrinsic clearance in mouse liver microsomes at 1 uM measured after 60 mins in presence of NADPH by LC-MS/MS analysis; format: ADME, microsome; conditions: read-out: CLH
# [11] = target: Cytochrome P450 2C9 (Homo sapiens, UniProt P11712); assay: Inhibition of CYP2C9 in human liver microsomes using diclofenac as substrate pretreated for 10 mins followed by substrate addition measured after 10 mins in presence of NADPH by LC-MS/MS method; format: ADME
# Sequence of Cytochrome P450 2C9 (P11712 whole entry): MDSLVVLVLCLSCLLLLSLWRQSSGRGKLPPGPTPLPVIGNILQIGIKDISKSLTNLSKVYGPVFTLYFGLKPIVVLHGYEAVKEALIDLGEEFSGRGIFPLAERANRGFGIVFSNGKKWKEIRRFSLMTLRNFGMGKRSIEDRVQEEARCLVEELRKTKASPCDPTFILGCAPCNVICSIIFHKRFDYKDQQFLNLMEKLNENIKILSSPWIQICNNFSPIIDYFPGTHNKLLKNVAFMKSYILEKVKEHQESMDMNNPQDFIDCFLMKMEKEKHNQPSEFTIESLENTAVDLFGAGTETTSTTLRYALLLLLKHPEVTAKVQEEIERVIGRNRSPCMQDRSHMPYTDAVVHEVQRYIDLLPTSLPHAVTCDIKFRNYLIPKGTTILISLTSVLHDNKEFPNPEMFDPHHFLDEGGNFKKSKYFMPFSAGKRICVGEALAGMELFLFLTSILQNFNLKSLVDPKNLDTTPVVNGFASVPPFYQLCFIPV
# [12] = target: Tyrosine-protein kinase BTK (Homo sapiens, UniProt Q06187); assay: Inhibition of human BTK at 10 uM using KVEKIGEGTYGVVYK as substrate measured after 120 mins in presence of [gamma33P]ATP by P81 ion exchange chromatographic method relative to control
# Sequence of Tyrosine-protein kinase BTK (Q06187 whole entry): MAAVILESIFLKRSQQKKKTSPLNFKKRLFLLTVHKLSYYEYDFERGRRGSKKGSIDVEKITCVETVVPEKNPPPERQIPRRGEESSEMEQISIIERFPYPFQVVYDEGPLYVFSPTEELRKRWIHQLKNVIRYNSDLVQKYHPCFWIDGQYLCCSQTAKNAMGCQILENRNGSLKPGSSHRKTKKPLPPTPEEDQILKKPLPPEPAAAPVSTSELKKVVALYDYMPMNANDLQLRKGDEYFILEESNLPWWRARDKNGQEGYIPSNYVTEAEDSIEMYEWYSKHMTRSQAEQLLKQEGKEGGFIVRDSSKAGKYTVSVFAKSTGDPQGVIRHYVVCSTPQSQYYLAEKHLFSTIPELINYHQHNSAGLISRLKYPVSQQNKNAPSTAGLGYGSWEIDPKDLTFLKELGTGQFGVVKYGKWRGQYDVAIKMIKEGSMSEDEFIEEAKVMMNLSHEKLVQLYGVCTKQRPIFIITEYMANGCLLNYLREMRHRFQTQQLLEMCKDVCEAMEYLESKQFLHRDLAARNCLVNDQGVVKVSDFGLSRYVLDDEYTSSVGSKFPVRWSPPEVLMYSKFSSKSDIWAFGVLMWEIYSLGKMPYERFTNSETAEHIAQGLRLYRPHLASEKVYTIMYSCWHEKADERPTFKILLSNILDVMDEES
# [13] = target: Cytochrome P450 2D6 (Homo sapiens, UniProt P10635); assay: Inhibition of CYP2D6 in human liver microsomes using dextromethorphan as substrate pretreated for 10 mins followed by substrate addition measured after 10 mins in presence of NADPH by LC-MS/MS method; format: ADME
# Sequence of Cytochrome P450 2D6 (P10635 whole entry): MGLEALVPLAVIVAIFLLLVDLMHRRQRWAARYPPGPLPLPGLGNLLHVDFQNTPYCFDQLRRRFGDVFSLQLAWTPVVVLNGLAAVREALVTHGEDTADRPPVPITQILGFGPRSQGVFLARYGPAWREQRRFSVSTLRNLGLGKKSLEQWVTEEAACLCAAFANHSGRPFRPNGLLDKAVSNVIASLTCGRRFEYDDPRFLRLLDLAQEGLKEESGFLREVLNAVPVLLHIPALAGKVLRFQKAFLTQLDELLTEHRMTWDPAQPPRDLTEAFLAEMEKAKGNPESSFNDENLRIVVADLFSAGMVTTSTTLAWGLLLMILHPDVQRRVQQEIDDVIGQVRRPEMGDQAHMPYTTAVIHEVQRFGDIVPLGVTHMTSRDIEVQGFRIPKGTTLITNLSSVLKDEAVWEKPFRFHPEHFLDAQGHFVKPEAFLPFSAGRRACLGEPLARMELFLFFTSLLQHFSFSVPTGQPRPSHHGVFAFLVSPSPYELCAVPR
# [14] = Intrinsic clearance in human liver microsomes at 1 uM measured after 60 mins in presence of NADPH by LC-MS/MS analysis; format: ADME, microsome; conditions: read-out: CLH
# Sequence of Cytochrome P450 3A4 (P08684 whole entry): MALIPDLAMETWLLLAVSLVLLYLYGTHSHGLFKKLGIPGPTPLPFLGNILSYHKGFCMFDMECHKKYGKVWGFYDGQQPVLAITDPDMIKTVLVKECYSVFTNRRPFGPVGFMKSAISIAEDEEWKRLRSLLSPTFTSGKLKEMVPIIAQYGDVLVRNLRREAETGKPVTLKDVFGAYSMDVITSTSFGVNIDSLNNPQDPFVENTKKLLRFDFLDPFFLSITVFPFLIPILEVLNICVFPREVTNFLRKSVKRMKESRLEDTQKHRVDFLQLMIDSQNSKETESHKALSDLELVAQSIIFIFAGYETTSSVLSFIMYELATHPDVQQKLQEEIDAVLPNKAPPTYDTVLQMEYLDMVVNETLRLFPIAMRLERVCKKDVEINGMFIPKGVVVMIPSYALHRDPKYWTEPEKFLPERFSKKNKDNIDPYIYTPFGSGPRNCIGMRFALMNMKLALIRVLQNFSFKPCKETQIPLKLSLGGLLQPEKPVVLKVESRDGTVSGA
IC50 [1] [µM],IC50 [2] [µM],solubility kinetic [3] [µg/mL],inhibition [4] [%],IC50 [5] [µM],logD [6],inhibition [7] [%],inhibition [8] [%],IC50 [9] [µM],CLint scaled at 1 µM [10] [mL/min/kg],IC50 [11] [µM],inhibition [12] [%],IC50 [13] [µM],CLint scaled at 1 µM [14] [mL/min/kg],Structure (SMILES)
3,> 10,< 0.5,1,1.1,> 4.5,16,78,> 10,97,0.9,-7,12.5,41,C=CC(=O)Nc1cccc(C)c1Nc1ncc2cc(-c3c(Cl)c(OC)cc(OC)c3Cl)ccc2n1
6.9,> 10,39,6,> 10,3,9,4,> 10,9640,3.7,7,35,165,C=CC(=O)Nc1cccc(C)c1Nc1ncc(OCc2c(F)c(OC)cc(OC)c2F)cn1
13.3,> 10,78,1,> 10,1.8,0,6,> 10,474,29.1,14,> 50,18,C=CC(=O)N[C@H]1COC[C@H]1Nc1ncc(OCc2c(F)c(OC)cc(OC)c2F)cn1

# Source: ChEMBL document CHEMBL4017480, “Discovery and optimization of selective FGFR4 inhibitors via scaffold hopping” (Bioorg Med Chem Lett, 2017)
